# From PMC10059066, “Probing Serum Albumins and Cyclodextrins as Binders of the Mycotoxin Metabolites Alternariol-3-Glucoside, Alternariol-9-Monomethylether-3-Glucoside, and Zearalenone-14-Glucuronide” (Metabolites, 2023)
# Values joined by “and” are separate entries in the source; they are usually repeats but may differ in a detail not shown here. Equal values may be shown once.
# Experiments:
# [1] = Fluorescence spectroscopic study of mycotoxin-SGD complex formation; assay type: binding; conditions: for SGD logK ± SEM (binding constant): Benesi–Hildebrand, 0.05 M sodium acetate pH 5.0, mycotoxin 1 μM, n = 3; for SGD-induced increase in the emission signal of the mycotoxin: SGD 0–5 mM, mycotoxin 1 μM, sodium acetate pH 5.0
# Protocol: (§1) The impacts of SBECD (0–10 mM) and SGD (0–5 mM) on the emission signals of mycotoxins (1 μM each) were tested in sodium acetate buffer (0.05 M, pH 5.0). Mycotoxin–CD interactions were evaluated using the Benesi–Hildebrand equation [11, 31], assuming 1:1 stoichiometry of complex formation:(2) F0/F−F0=1/A+1/A×K×[CD] where K (L/mol) is the binding constant, F0 is the emission signal of the mycotoxin without the host molecules, F is the emission signal of the mycotoxin with CDs, A is a constant, and [CD] is the molar concentration (mol/L) of the host molecules.
# (§2) Therefore, CD-induced elevation in the fluorescence emission intensities of mycotoxins was examined.
# (§3) Based on the emission signals at 455 nm, the binding constants of ligand–CD complexes were calculated using the Benesi–Hildebrand equation (Equation (2)). Background corrections were performed in each experiment. […] Glucose and glucuronic acid are bulky, hydrophilic molecules; therefore, it is reasonable to hypothesize that these substituents make the inclusion of AG, AMG, and Z14Glr by the apolar CD cavity difficult.
# [2] = Extraction of mycotoxins from aqueous solutions with β-cyclodextrin bead polymer; conditions: for decrease in mycotoxin concentration (extraction) by BBP: BBP 10 mg/mL, mycotoxin 5 μM, sodium acetate buffer pH 5.0, 40 min, 25 °C; for removal of mycotoxin by BBP at pH 10.0 compared with pH 5.0: sodium borate pH 10.0 vs sodium acetate pH 5.0, mycotoxin 5 μM
# Protocol: (§4) The extraction of mycotoxins by insoluble (but water-swellable) CD bead polymers was tested in 0.05 M sodium acetate (pH 5.0) and 0.05 M sodium borate (pH 10.0) buffers. AG, AMG, alternariol, Z14Glr, and zearalenone solutions (5 μM each) were incubated with increasing amounts (0–10 mg/mL) of BBP or GBP in a thermomixer for 40 min at 1000 rpm and 25 °C. After pulse centrifugation (5000× g, 3 s), the mycotoxin contents of the supernatants were analyzed by HPLC-FLD (see Section 2.5).
# (§5) The quantitative analyses of the examined mycotoxins were performed with a Jasco HPLC system (Tokyo, Japan) equipped with a binary pump (PU-4180), an autosampler (AS 4050), and a fluorescence detector (FP-920). Chromatograms were evaluated using the ChromNAV2 software (Jasco). Alternariol and zearalenone were analyzed as described previously. During the validation of our new HPLC-FLD methods, the linearity (LIN), limit of detection (LOD), limit of quantification (LOQ), and intraday repeatability (IDR) were determined as described previously.
# (§6) AG and AMG were quantified using the following method: Isocratic elution of the samples (20 μL) was performed at room temperature with a 1 mL/min flow rate, employing phosphoric acid (1 mM) and acetonitrile (65:35 v/v%) as the mobile phase, where a Security Guard (C18, 4.0 × 3.0 mm; Phenomenex, Torrance, CA, US) precolumn was linked to a Kinetex EVO C18 (250 × 4.6 mm, 5 μm; Phenomenex) analytical column. Chromatograms were recorded, applying 335 nm and 455 nm excitation and emission wavelengths, respectively. The method validation parameters were as follows: AG (LIN: 0.2–5.0 μM, R^2 = 0.999; LOD = 0.05 μM; LOQ = 0.18 μM; IDR = 1.3%, n = 7); AMG (LIN: 0.2–5.0 μM, R^2 = 0.997; LOD = 0.15 μM; LOQ = 0.50 μM; IDR = 2.3%, n = 7).
# (§7) Z14Glr was quantified using the following method: Isocratic elution of the samples (20 μL) was performed at room temperature with a 1 mL/min flow rate, employing 1% acetic acid solution and acetonitrile (65:35 v/v%) as the mobile phase, where a Security Guard (C8, 4.0 × 3.0 mm; Phenomenex) precolumn was linked to a Mediterranea See8 (C8, 150 × 4.6 mm, 5 μm; Teknokroma, Barcelona, Spain) analytical column. Chromatograms were recorded, applying 315 nm and 465 nm excitation and emission wavelengths, respectively. The method validation parameters for the HPLC analysis of Z14Glr were also determined (LIN: 0.2–5.0 μM, R^2 = 0.999; LOD = 0.15 μM; LOQ = 0.50 μM; IDR = 2.0%, n = 7).
# [3] = target: T1, human serum albumin (HSA) (Homo sapiens, UniProt P02768); assay: Ultracentrifugation study of mycotoxin-HSA binding
# T1 construct: purchased Merck (Darmstadt, Germany)
# Protocol: To confirm the data calculated based on fluorescence quenching studies, ultracentrifugation experiments were also performed. With the proper conditions of ultracentrifugation, albumin (with the bound ligands) can be sedimented. The samples (final volume: 500 μL) contained AG, AMG, or Z14Glr (5 μM each) with HSA (60 or 180 μM) dissolved in PBS. Centrifugation (16 h, 170,000× g, 20 °C) was performed using 11 × 34 mm PC tubes (Beckman Coulter, Brea, CA, US) and a Beckman Coulter Optima MAX-XP tabletop ultracentrifuge (fixed-angle rotor). The unbound fractions of mycotoxins were determined in the protein-free supernatant by HPLC-FLD (see details in Section 2.5), as previously reported. (3) K=[LA]/L×[A] where [L], [A], and [LA] are the concentrations (mol/L) of the ligand (unbound), albumin (unbound), and the ligand–albumin complex, respectively.
# Furthermore, to test the impact of environmental pH on the stability of mycotoxin–albumin complexes, the abovementioned experiments were also performed in 0.05 M sodium acetate (pH 5.0) and 0.05 M sodium borate (pH 8.5) buffers.
# To confirm the binding constants determined in the quenching experiments, and to get insight into the interaction of Z14Glr with HSA, ultracentrifugation studies were also performed. In these investigations, albumins (with the ligands bound) were sedimented, and then the concentrations of the unbound mycotoxins were quantified from the supernatants.
# [4] = target: T2, porcine serum albumin (PSA) (Sus scrofa, UniProt P08835); assay: Fluorescence quenching of porcine serum albumin by mycotoxins; assay type: binding; conditions: for PSA logKSV ± SEM (Stern–Volmer quenching constant): PBS pH 7.4, 25 °C, albumin 2 μM, mycotoxin 0–5 μM, n = 3; for Kd: fluorescence quenching, HyperQuad fitting, PBS pH 7.4, n = 3, read-out: PSA logK ± SEM (binding constant) (converted)
# T2 construct: purchased Merck (Darmstadt, Germany)
# Protocol: (§8) Fluorescence emission spectra were collected at 25 °C using a Hitachi F-4500 fluorescence spectrophotometer (Tokyo, Japan). The quenching effects of AG, AMG, and Z14Glr (each 0–5 μM) on the emission signals of albumins (2 μM each) were examined at 340 nm in phosphate-buffered saline (PBS, pH 7.4). UV–vis measurements were performed at 25 °C in PBS, employing a Jasco V730 UV–vis spectrophotometer (Tokyo, Japan). Thereafter, we corrected the inner-filter effects of the mycotoxins, as previously reported. Stern–Volmer quenching constants (KSV; L/mol) were calculated with the graphical application of the Stern–Volmer equation [11, 29]:(1) I0/I=1+KSV×Q where I0 and I are the emission intensities of the protein without and with the quencher, respectively, while [Q] is the concentration (mol/L) of the quencher (mycotoxin). The binding constants (K; L/mol) of mycotoxin–albumin complexes were determined with nonlinear fitting, using the HyperQuad2006 software (version 3.1; Protonic Software GmbH, Hanau, Germany), as described previously.
# (§9) The interaction of a ligand molecule with albumin usually induces a decrease in the emission signal of the protein [33]; therefore, fluorescence quenching studies were performed. In PBS (pH 7.4), increasing amounts of AG, AMG, and Z14Glr were added to standard concentrations of human (HSA), bovine (BSA), porcine (PSA), or rat (RSA) serum albumins, after which the emission spectra were recorded.
# (§10) The KSV and K values of mycotoxin–albumin complexes were determined using the Stern–Volmer equation (Equation (1)) and the HyperQuad2006 software (see data in Table 1 and Table 2, respectively). […] The logKSV and logK values of the mycotoxin–albumin complexes were in good agreement (Table 1 and Table 2).
# [5] = target: T1, human serum albumin (HSA); assay: Fluorescence quenching of human serum albumin by mycotoxins; assay type: binding; conditions: for HSA logKSV ± SEM (Stern–Volmer quenching constant): PBS pH 7.4, 25 °C, albumin 2 μM, mycotoxin 0–5 μM, n = 3; for Kd: fluorescence quenching, HyperQuad fitting, PBS pH 7.4, n = 3, read-out: HSA logK ± SEM (binding constant) (converted)
# Protocol: as §8, §9, §10
# [6] = Fluorescence spectroscopic study of mycotoxin-SBECD complex formation; assay type: binding; conditions: for SBECD logK ± SEM (binding constant): Benesi–Hildebrand, 0.05 M sodium acetate pH 5.0, mycotoxin 1 μM, n = 3; for SBECD-induced increase in the emission signal of the mycotoxin: SBECD 0–10 mM, mycotoxin 1 μM, sodium acetate pH 5.0
# Protocol: as §1, §2, §3
# rat serum albumin (RSA) = target: T3, rat serum albumin (RSA) (Rattus norvegicus, UniProt P02770); assay: Fluorescence quenching of rat serum albumin by mycotoxins; assay type: binding; conditions: for RSA logKSV ± SEM (Stern–Volmer quenching constant): PBS pH 7.4, 25 °C, albumin 2 μM, mycotoxin 0–5 μM, n = 3; for Kd: fluorescence quenching, HyperQuad fitting, PBS pH 7.4, n = 3, read-out: RSA logK ± SEM (binding constant) (converted)
# T3 construct: purchased Merck (Darmstadt, Germany)
# Protocol: as §8, §9, §10
# [7] = test system: serum albumins (HSA, BSA, PSA, RSA); assay: Fluorescence quenching, summary over the tested albumins; assay type: binding, human, bovine, porcine, rat; conditions: PBS pH 7.4, approximate over the albumins tested
# Protocol: as §8, §10
# [8] = target: T4, bovine serum albumin (BSA) (Bos taurus, UniProt P02769); assay: Fluorescence quenching of bovine serum albumin by mycotoxins; assay type: binding; conditions: for BSA logKSV ± SEM (Stern–Volmer quenching constant): PBS pH 7.4, 25 °C, albumin 2 μM, mycotoxin 0–5 μM, n = 3; for Kd: fluorescence quenching, HyperQuad fitting, PBS pH 7.4, n = 3, read-out: BSA logK ± SEM (binding constant) (converted)
# T4 construct: purchased Merck (Darmstadt, Germany)
# Protocol: as §8, §9, §10
# [9] = Extraction of mycotoxins from aqueous solutions with γ-cyclodextrin bead polymer; conditions: GBP 0–10 mg/mL, mycotoxin 5 μM, sodium acetate buffer pH 5.0
# Protocol: as §4, §5
# as §6, with “The method validation parameters were as follows: AG (LIN: 0.2–5.0 μM, R^2 = 0.999; LOD = 0.05 μM; LOQ = 0.18 μM; IDR = 1.3%, n = 7); AMG (LIN: 0.2–5.0 μM, R^2 = 0.997; LOD = 0.15 μM; LOQ = 0.50 μM; IDR = 2.3%, n = 7).” left out
# as §7, with “The method validation parameters for the HPLC analysis of Z14Glr were also determined (LIN: 0.2–5.0 μM, R^2 = 0.999; LOD = 0.15 μM; LOQ = 0.50 μM; IDR = 2.0%, n = 7).” left out
# [10] = 0.05 M sodium acetate pH 5.0, mycotoxin 5 μM, n = 3, read-out: HSA pH 5.0 logK ± SEM (binding constant) (converted)
# [11] = 0.05 M sodium borate pH 8.5, mycotoxin 5 μM, n = 3, read-out: HSA pH 8.5 logK ± SEM (binding constant) (converted)
# [12] = PBS pH 7.4, mycotoxin 5 μM, n = 3, read-out: HSA pH 7.4 logK ± SEM (binding constant) (converted)
# T4 sequence (P02769 25-607): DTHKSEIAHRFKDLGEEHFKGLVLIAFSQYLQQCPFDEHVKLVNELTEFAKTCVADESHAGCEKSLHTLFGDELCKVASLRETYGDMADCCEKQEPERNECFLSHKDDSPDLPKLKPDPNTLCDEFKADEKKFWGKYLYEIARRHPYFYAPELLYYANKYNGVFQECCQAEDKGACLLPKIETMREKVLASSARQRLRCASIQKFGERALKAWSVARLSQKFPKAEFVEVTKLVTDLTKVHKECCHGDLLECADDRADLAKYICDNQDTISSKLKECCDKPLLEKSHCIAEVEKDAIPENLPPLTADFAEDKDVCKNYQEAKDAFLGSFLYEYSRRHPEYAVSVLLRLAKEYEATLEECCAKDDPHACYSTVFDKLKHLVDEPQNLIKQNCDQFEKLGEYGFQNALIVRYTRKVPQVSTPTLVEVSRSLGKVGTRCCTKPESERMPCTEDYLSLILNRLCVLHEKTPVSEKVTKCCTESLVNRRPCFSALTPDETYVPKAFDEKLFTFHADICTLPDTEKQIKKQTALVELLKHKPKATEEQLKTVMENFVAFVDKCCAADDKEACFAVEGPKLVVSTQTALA
# T2 sequence (P08835 25-607): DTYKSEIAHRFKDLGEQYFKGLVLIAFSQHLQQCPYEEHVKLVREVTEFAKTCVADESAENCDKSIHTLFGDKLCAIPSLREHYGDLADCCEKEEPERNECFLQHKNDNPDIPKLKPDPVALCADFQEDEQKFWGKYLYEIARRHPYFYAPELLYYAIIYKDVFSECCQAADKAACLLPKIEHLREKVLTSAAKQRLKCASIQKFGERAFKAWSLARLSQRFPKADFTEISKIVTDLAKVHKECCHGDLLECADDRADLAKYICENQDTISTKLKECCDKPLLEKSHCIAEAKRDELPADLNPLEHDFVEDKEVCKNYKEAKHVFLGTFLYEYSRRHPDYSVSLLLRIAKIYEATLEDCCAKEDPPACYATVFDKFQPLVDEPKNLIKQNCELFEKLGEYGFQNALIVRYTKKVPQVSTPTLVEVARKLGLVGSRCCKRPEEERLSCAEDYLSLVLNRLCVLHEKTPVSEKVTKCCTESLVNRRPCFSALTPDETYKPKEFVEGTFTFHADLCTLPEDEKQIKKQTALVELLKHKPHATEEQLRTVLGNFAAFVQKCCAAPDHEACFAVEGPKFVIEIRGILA
# T1 sequence (P02768 25-609): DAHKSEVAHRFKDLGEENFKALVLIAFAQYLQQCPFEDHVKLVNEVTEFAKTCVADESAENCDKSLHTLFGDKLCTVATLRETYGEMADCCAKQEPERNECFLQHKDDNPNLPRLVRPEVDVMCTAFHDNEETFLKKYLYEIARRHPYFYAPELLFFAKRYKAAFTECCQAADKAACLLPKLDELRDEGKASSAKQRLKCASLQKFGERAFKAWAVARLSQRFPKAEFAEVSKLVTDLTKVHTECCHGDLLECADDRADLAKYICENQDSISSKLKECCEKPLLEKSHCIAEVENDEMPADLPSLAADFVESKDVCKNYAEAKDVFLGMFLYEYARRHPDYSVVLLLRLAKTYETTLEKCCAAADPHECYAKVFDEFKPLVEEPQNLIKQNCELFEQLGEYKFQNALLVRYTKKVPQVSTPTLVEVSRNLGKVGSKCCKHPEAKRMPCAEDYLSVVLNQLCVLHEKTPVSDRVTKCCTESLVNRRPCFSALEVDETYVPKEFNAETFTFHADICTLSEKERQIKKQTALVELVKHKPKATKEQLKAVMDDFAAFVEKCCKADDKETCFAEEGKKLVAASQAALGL
# T3 sequence (P02770 25-608): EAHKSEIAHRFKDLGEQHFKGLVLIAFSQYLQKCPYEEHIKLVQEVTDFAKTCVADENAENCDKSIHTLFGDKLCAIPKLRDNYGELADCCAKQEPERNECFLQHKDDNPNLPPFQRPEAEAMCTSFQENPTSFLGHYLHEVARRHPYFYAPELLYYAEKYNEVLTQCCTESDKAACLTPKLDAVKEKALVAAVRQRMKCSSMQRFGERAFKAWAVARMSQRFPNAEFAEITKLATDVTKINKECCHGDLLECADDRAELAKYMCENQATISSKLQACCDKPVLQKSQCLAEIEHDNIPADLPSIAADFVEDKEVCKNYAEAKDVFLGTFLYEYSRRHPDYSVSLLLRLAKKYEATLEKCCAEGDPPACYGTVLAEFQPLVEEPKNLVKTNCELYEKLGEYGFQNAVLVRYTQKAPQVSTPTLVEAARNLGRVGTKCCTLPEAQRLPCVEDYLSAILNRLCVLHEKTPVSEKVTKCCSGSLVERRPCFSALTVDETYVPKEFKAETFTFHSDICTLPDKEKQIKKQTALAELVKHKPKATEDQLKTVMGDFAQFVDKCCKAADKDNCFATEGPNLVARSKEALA
compound,measurement,setting,value
"Cc1cc(OC2O[C@H](CO)[C@@H](O)[C@H](O)[C@H]2O)cc2oc(=O)c3c(O)cc(O)cc3c12 (stereo partly drawn) [AG, alternariol-3-glucoside]",SGD logK ± SEM (binding constant),[1],3.19 ± 0.08 L/mol
same,SGD-induced increase in the emission signal of the mycotoxin,[1],approximately sevenfold increase
same,decrease in mycotoxin concentration (extraction) by BBP,[2],approximately 85%
same,removal of mycotoxin by BBP at pH 10.0 compared with pH 5.0,[2],significantly lower than at acidic pH
same,Kd,[3]; [10],33.1 µM
same,Kd,[3]; [11],39.8 µM
same,Kd,[3]; [12],57.5 µM
same,PSA logKSV ± SEM (Stern–Volmer quenching constant),[4],4.38 ± 0.03 L/mol
same,Kd,[4],37.2 µM
same,HSA logKSV ± SEM (Stern–Volmer quenching constant),[5],4.48 ± 0.08 L/mol
same,Kd,[5],30.2 µM
same,SBECD logK ± SEM (binding constant),[6],2.92 ± 0.05 L/mol
same,SBECD-induced increase in the emission signal of the mycotoxin,[6],threefold elevation
same,RSA logKSV ± SEM (Stern–Volmer quenching constant),rat serum albumin (RSA),4.49 ± 0.03 L/mol
same,Kd,rat serum albumin (RSA),29.5 µM
same,binding constant K of mycotoxin–albumin complexes,[7],≈ 3 × 10^4 L/mol
same,BSA logKSV ± SEM (Stern–Volmer quenching constant),[8],4.44 ± 0.04 L/mol
same,Kd,[8],34.7 µM
same,removal of mycotoxin by GBP,[9],strongly reduced
"COc1cc(O)c2c(=O)oc3cc(OC4O[C@H](CO)[C@@H](O)[C@H](O)[C@H]4O)cc(C)c3c2c1 (stereo partly drawn) [AMG, alternariol-9-monomethylether-3-glucoside]",SGD logK ± SEM (binding constant),[1],3.45 ± 0.04 L/mol
same,SGD-induced increase in the emission signal of the mycotoxin,[1],approximately sevenfold increase
same,decrease in mycotoxin concentration (extraction) by BBP,[2],~75%
same,removal of mycotoxin by BBP at pH 10.0 compared with pH 5.0,[2],did not show relevant pH dependence
same,affinity toward HSA at pH 8.5 relative to pH 5.0,[3],approximately 17 fold
same,Kd,[3]; [10],151 µM
same,Kd,[3]; [11],8.91 µM
same,Kd,[3]; [12],79.4 µM and 77.6 µM
same,PSA logKSV ± SEM (Stern–Volmer quenching constant),[4],4.27 ± 0.03 L/mol
same,Kd,[4],51.3 µM
same,HSA logKSV ± SEM (Stern–Volmer quenching constant),[5],4.38 ± 0.05 L/mol
same,Kd,[5],39.8 µM
same,SBECD logK ± SEM (binding constant),[6],2.79 ± 0.08 L/mol
same,SBECD-induced increase in the emission signal of the mycotoxin,[6],threefold elevation
same,RSA logKSV ± SEM (Stern–Volmer quenching constant),rat serum albumin (RSA),4.62 ± 0.02 L/mol
same,Kd,rat serum albumin (RSA),22.4 µM
same,binding constant K of mycotoxin–albumin complexes,[7],≈ 3 × 10^4 L/mol
same,BSA logKSV ± SEM (Stern–Volmer quenching constant),[8],4.57 ± 0.02 L/mol
same,Kd,[8],25.7 µM
same,removal of mycotoxin by GBP,[9],strongly reduced
